From patent publication US9505773B2 (Isomerase Therapeutics Limited, priority 2013, dated 2016)
pIC50, pKi: −log10 of the molar value.

What was measured:
FKBP12 = FKBP12 (Homo sapiens (Human), UniProt P62942); assay: FKBP12 PPlase assay; assay type: biochemical; conditions: for inhibition at 1 µM: read-out: inhibition of FKBP12 at 1 uM; for pKi: FKBP12 PPlase assay, 6 concentrations in duplicate, data fitted to a Ki curve
[1] = test system: murine T cell proliferation (PLP peptide-stimulated lymph node cells; mTOR-driven); assay: Murine PLP T cell proliferation assay (PLP assay); assay type: cell-based; conditions: for pIC50: Mus musculus, PLP T-cell proliferation assay; for Ratio (PLP/FKBP*): PLP IC50 / FKBP12 Ki (Ki values from Example 19)

Chain of FKBP12 (P62942 whole entry, species assumed): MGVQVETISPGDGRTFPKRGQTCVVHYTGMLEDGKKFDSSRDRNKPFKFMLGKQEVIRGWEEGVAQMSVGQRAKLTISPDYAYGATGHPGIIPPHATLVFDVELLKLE

SMILES | inhibition at 1 µM (FKBP12) [%] | pKi (FKBP12) | pIC50 [1] | Ratio (PLP/FKBP*) [1]
CO[C@@H](C[C@@H]1CC[C@@H](C)[C@](O)(CC(=O)N2CCCC[C@H]2C(=O)O)O1)/C(C)=C/C=C/C=C/[C@@H](C)C[C@H]1CC[C@H](O)CC1 [Compound 3] | 25 |  | 5.84 | 
CO[C@H]1C[C@@H]2CC[C@@H](C)[C@@](O)(O2)C(=O)C(=O)N2CCCC[C@H]2C(=O)OC([C@H](C)C[C@H]2CC[C@H](O)CC2)C[C@@H](O)CC(=O)[C@H](C)C[C@H](C)/C=C/C=C/C=C/1C (some centres unmarked) [Compound 4] |  |  | 5.35 | 
CO[C@H]1C[C@@H]2CC[C@@H](C)[C@](O)(CC(=O)N3CCCC[C@H]3C(=O)OC([C@H](C)C[C@H]3CC[C@H](O)CC3)CC(=O)[C@H](C)C[C@H](C)/C=C/C=C/C=C/1C)O2 (some centres unmarked) [Compound 6] |  | 6.43 | 5.58 | 7.095
CO[C@H]1C[C@@H]2CC[C@@H](C)[C@](O)(CC(=O)N3CCCC[C@H]3C(=O)OC([C@H](C)C[C@@H]3CC[C@@H](O)[C@H](O)C3)C/C=C(\C)[C@@H](O)CC(=O)[C@H](C)C[C@H](C)/C=C/C=C/C=C/1C)O2 (some centres unmarked) [Compound 9] |  | 6.74 |  | 
CO[C@H]1C[C@@H]2CC[C@@H](C)[C@](O)(CC(=O)N3CCCC[C@H]3C(=O)O[C@H](/C(C)=C/CC(O)[C@H](C)C[C@@H]3CC[C@@H](O)[C@H](O)C3)CC(=O)[C@H](C)C[C@H](C)/C=C/C=C/C=C/1C)O2 (some centres unmarked) [Compound 11] |  | 6.37 | 5.38 | 9.721
CO[C@H]1C[C@@H]2CC[C@@H](C)[C@@](O)(O2)C(=O)C(=O)N2CCCC[C@H]2C(=O)OC([C@H](C)Cc2ccncc2)C/C=C(\C)[C@@H](O)CC(=O)[C@H](C)C[C@H](C)/C=C/C=C/C=C/1C (some centres unmarked) [Compound 13] |  | 7.89 | 5.18 | 506.6154
CO[C@H]1C[C@@H]2CC[C@@H](C)[C@@](O)(O2)C(=O)C(=O)N2CCCC[C@H]2C(=O)OC2CCC(CC2)C(=O)[C@H](C)C[C@H](C)/C=C/C=C/C=C/1C [Compound 15] | 31 |  |  | 
C\C1=C/C=C/C=C/[C@@H](C)C[C@@H](C)C(=O)C2CCC(CC2)OC(=O)[C@@H]2CCCCN2C(=O)C(=O)[C@]2(O)O[C@@H](CC[C@H]2C)C[C@@H]1O [Compound 16] |  | 6.34 |  | 
CO[C@H]1C[C@@H]2CC[C@@H](C)[C@](O)(CC(=O)N3CCCC[C@H]3C(=O)O[C@H]([C@H](C)C[C@H]3CC[C@H](O)CC3)C/C=C(\C)[C@@H](O)CC(=O)[C@H](C)C[C@H](C)/C=C/C=C/C=C/1C)O2 [Compound 18] |  | 7.35 |  | 
CO[C@H]1C[C@@H]2CC[C@@H](C)[C@@](O)(O2)C(=O)C(=O)N2CCCC[C@H]2C(=O)O[C@H]([C@H](C)C[C@H]2CC[C@H](O)CC2)C/C=C(\C)[C@@H](O)[C@@H](O)C(=O)[C@H](C)C[C@H](C)/C=C/C=C/C=C/1C [Compound 20] |  | 7.74 |  | 
CO[C@@H](C[C@@H]1CC[C@@H](C)[C@](O)(C(=O)C(=O)N2CCCC[C@H]2C(=O)O[C@@H](C/C=C(\C)C=O)[C@H](C)C[C@H]2CC[C@H](O)CC2)O1)/C(C)=C/C=C/C=C/[C@@H](C)C[C@@H](C)C(=O)CO [Compound 22] |  | 7.92 |  | 
CO[C@H]1C[C@@H]2CC[C@@H](C)[C@@](O)(O2)C(=O)C(=O)N2CCCC[C@H]2C(=O)O[C@H]([C@H](C)C[C@@H]2CC[C@@H](O)[C@H](OC)C2)CC(=O)[C@H](C)/C=C(\C)[C@@H](O)[C@@H](OC)C(=O)[C@H](C)C[C@H](C)/C=C/C=C/C=C/1C [Rapamycin, rapamycin, reference compound] |  |  | 10.62 | 

The remaining molecules from weak to strong by pKi (FKBP12), led by results:

inhibition at 1 µM (FKBP12) [%] | pKi (FKBP12) | SMILES | pIC50 [1] | Ratio (PLP/FKBP*) [1]
 | 8.00 | CC/C1=C\CC(/C(C)=C/C(C)C(C)O)OC(=O)C2CCCCN2C(=O)C(=O)C2(O)OC(CCC2C)CC(O)C(C)C(O)CC(O)CC(O)/C(C)=C/C(C)CC(C)C1O (centres unmarked) [Meridamycin] |  | 
 | 8.02 | CO[C@H]1C[C@@H]2CC[C@@H](C)[C@@](O)(O2)C(=O)C(=O)N2CCCC[C@H]2C(=O)OC([C@H](C)Cc2ccc(CO)s2)C/C=C(\C)[C@@H](O)CC(=O)[C@H](C)C[C@H](C)/C=C/C=C/C=C/1C (some centres unmarked) [Compound 12] | 5.54 | 301.5789
 | 8.10 | CO[C@H]1C[C@@H]2CC[C@@H](C)[C@@](O)(O2)C(=O)C(=O)N2CCCC[C@H]2C(=O)OC([C@H](C)C[C@H]2CC[C@H](O)CC2)C/C=C(\C)[C@@H](O)CC(=O)[C@H](C)C[C@H](C)/C=C/C=C/C=C/1C (some centres unmarked) [Compound 5] |  | 
 | 8.11 | C/C1=C\C[C@@H]([C@H](C)C[C@H]2CC[C@H](O)CC2)OC(=O)[C@@H]2CCCCN2C(=O)C(=O)[C@]2(O)O[C@@H](CC[C@H]2C)C[C@H](O)/C(C)=C/C=C/C=C/[C@@H](C)C[C@@H](C)C(=O)C[C@@H]1O [Compound 19] |  | 
 | 8.19 | CO[C@H]1C[C@@H]2CC[C@@H](C)[C@@](O)(O2)C(=O)C(=O)N2CCCC[C@H]2C(=O)O[C@H]([C@H](C)C[C@H]2CC[C@H](O)CC2)CC(O)CC(=O)[C@H](C)/C=C(\C)[C@@H](O)CC(=O)[C@@H](C)C[C@H](C)/C=C/C=C/C=C/1C (some centres unmarked) [Compound 14] |  | 
 | 8.23 | CO[C@H]1C[C@@H]2CC[C@@H](C)[C@@](O)(O2)C(=O)C(=O)N2CCCC[C@H]2C(=O)OC([C@H](C)C[C@@H]2CC[C@@H](O)[C@H](OC)C2)C/C=C(\C)[C@@H](O)CC(=O)[C@H](C)C[C@H](C)/C=C/C=C/C=C/1C (some centres unmarked) [Compound 8] | 6.31 | 83.05
 | 8.38 | CO[C@H]1C[C@@H]2CC[C@@H](C)[C@@](O)(O2)C(=O)C(=O)N2CCCC[C@H]2C(=O)OC([C@H](C)C[C@@H]2CC[C@@H](O)[C@H](O)C2)C/C=C(\C)[C@@H](O)CC(=O)[C@H](C)C[C@H](C)/C=C/C=C/C=C/1C (some centres unmarked) [Compound 10] | 4.85 | 3338.333
